{"source": "patent US12412916B2", "about": "“Fuel cell with polymer electrolyte membrane” (HYUNDAI MOTOR COMPANY, priority 2022, dated 2025)", "key": {"[1]": {"assay_type": "physicochemical", "method": "The thermal stability was confirmed through thermogravimetric analysis (TGA), and specifically, each compound sample was put into a heating furnace of the thermogravimetric analyzer, and the temperature was elevated from room temperature to 120° C. at 20° C./min and maintained for 10 minutes, thereby removing the remaining water and performing stabilization. Thereafter, the weight change of the sample was measured while cooling to 60° C. at 20° C./min and heating from 60° C. to 800° C. at 10° C./min in a nitrogen atmosphere, and the results are shown in Table 1 below."}, "[2]": {"assay_type": "physicochemical", "method": "The solubility of each compound sample was observed by dissolving the same amount in a total of six solvents, including water, dimethylacetamide (DMAc), methanol, ethanol, 1-propanol and 2-propanol, and the results are shown in Table 1 and FIG. 4. In the results, if the phase separation is not visible with the naked eye and the sample is dissolved well, it is indicated as ∘, and if the phase separation is visible or the sample is not dissolved, it is indicated as x.", "remark": "listed apart in the source"}}}
{"smiles": "CC(C)(C)c1cc(C(F)(F)C(F)(F)OC(F)(F)C(F)(F)S(=O)(=O)O)cc(C(C)(C)C)c1O", "note": "[Example 1, sodium 2-(2-(3,5-di-tert-butyl-4-oxidophenyl)-1,1,2,2-tetrafluoroethoxy)-1,1,2,2-tetrafluoroethanesulfonate]", "values": [{"measurement": "Thermal stability 5% decomposition temperature", "setting": "[1]", "value": 255, "unit": "°C"}, {"measurement": "Solubility 1-propanol", "setting": "[2]", "value": "○"}, {"measurement": "Solubility 2-propanol", "setting": "[2]", "value": "○"}, {"measurement": "Solubility DMAc", "setting": "[2]", "value": "○"}, {"measurement": "Solubility Ethanol", "setting": "[2]", "value": "○"}, {"measurement": "Solubility Methanol", "setting": "[2]", "value": "○"}, {"measurement": "Solubility in water (in words)", "setting": "[2]", "value": "not dissolved in water"}]}
